Measured values as given in patent publication US4895842A, “Phenylalanine derivative and proteinase inhibitor” (Shosuke Okamoto, priority 1985, dated 1990).
pIC50: −log10 of the molar value. Structures can show the parent of a compound that is named as a salt. Where two headings read alike, the source gives them in different places.

Columns and labels:
human plasmin [1] = target: T1, human plasmin (Homo sapiens, UniProt P00747); test: biochemical; conditions: read-out: Plasmin S-2251 (I50)
Procedure: An inhibitor sample is dissolved in a 0.05M Tris-hydrochloric acid buffer solution (pH=7.4) to make the total volume of 400 μl. […] Then, 50 μl of a 0.2 casein unit/ml human plasmin is added and the mixture is incubated at a temperature of 37° C. for 4 minutes. Thereafter, the reaction is stopped by adding 50 μl of 50% acetic acid.
Thus, the concentration I50 (μmol) of the inhibitor sample, at which the absorbance is one half (i.e., 1/2) of that obtained in the absence of the inhibitor, is determined.

human urokinase = human urokinase (Homo sapiens, UniProt P00749); test: biochemical
Procedure: Determination of inhibition activity for S-2444 decomposition
An inhibitor sample is dissolved in a 0.05M Tris-hydrochloric acid buffer solution (pH=8.8) to make the total volume to 400 μl. To this solution, 50 μl of a 1 mM S-2444 solution is added and the mixture is incubated at a temperature of 37° C. for 5 minutes in a constant temperature bath. Then, 50 μl of a 500 unit/ml human urokinase is added and the mixture is incubated at a temperature of 37° C. for 5 minutes. Thereafter, 50 μl of 50% acetic acid is added to terminate the reaction. The absorbance of the p-nitroaniline formed in the reaction mixture is measured at 405 nm. Thus, the concentration I50 (μmol) of the inhibitor sample, at which the absorbance is one half (i.e., 1/2) of that obtained in the absence of the inhibitor sample, is determined.

bovine trypsin = target: T2, bovine trypsin (Bos taurus, UniProt P00760); test: Antitrypsin activity: inhibition of S-2238 decomposition; type: biochemical
T2 sequence (P00760 24-246): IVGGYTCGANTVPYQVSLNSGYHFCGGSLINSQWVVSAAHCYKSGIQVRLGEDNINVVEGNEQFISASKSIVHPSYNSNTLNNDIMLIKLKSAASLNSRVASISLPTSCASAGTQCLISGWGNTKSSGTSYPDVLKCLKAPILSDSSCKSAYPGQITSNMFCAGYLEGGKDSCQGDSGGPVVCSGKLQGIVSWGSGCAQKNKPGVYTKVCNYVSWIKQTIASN

human plasmin [2] = target: T1, human plasmin; test: Antiplasmin activity: inhibition of fibrin decomposition; type: biochemical; conditions: read-out: Plasmin Fibrin (I50)
Procedure: (i) Determination of inhibition activity for fibrin decomposition
An inhibitor sample is dissolved in a 0.18M borate-physiological salt buffer solution (pH=7.4) to make the total volume to 600 μl. To this buffer solution, 200 μl of a 0.2% bovine fibrinogen, 100 μl of a 0.3 casein unit/ml human plasmin solution, and 100 μl of a 50 unit/ml bovine thrombin solution, all dissolved in the above-mentioned buffer, are added at a temperature of 37° C. in a constant temperature bath. Then, the dissolution time of the fibrin mass formed above is determined.

human plasma kallikrein = human plasma kallikrein (Homo sapiens, UniProt P03952); test: Anti-plasma kallikrein activity: inhibition of S-2302 decomposition; type: biochemical
Sequence of human plasma kallikrein (P03952 391-638 limits assumed): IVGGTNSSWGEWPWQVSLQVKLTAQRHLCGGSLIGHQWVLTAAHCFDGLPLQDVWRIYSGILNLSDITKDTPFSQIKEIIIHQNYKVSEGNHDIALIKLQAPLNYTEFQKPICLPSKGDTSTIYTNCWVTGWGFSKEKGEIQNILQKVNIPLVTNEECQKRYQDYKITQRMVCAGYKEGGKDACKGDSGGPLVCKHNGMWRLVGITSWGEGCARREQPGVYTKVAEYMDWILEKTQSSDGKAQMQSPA
Sequence of human plasma kallikrein (P03952 20-390 partner limits assumed): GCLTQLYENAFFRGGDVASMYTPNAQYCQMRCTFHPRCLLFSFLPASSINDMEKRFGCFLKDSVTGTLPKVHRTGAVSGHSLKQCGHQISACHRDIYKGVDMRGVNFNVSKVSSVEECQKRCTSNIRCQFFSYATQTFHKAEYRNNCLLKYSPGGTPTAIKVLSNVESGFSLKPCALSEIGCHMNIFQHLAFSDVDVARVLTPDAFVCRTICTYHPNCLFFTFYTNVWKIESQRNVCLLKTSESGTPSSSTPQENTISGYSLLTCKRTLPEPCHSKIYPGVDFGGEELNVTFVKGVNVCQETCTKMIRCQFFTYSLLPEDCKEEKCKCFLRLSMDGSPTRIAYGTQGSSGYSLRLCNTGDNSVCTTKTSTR

bovine thrombin [3] = target: T3, bovine thrombin (Bos taurus, UniProt P00735); test: Antithrombin activity: inhibition of S-2238 decomposition; type: biochemical
Procedure: (ii) Determination of inhibition activity for S-2238 decomposition
An inhibitor sample is dissolved in a 0.05M Tris-hydrochloric acid buffer solution (pH=8.3) to make a total volume of 400 μl. To this solution, 50 μl of a 0.2 mM S-2238 solution is added and the mixture is incubated at a temperature of 37° C. for 5 minutes in a constant temperature bath. Then, 50 μl of a 0.2 unit/ml bovine thrombin solution is added thereto and the absorbance, at 405 nm, of the p-nitroaniline formed per minute is determined at a temperature of 37° C. by using the so-called initial velocity method. Thus, the concentration I50 (μmol) of the inhibitor sample at which the absorbance is one half (i.e., 1/2) of that obtained in the absence of the inhibitor sample, is determined.

bovine thrombin [4] = target: T3, bovine thrombin; test: Antithrombin activity: inhibition of fibrin formation from fibrinogen; type: biochemical
Procedure: (i) Determination of inhibition activity against fibrin formation
An inhibitor sample is dissolved in a 0.18M borate-physiological salt buffer solution (pH=7.4) to make the total volume to 500 μl. To this solution, 400 μl of a 0.2% bovine fibrinogen solution and 100 μl of a 4 unit/ml bovine thrombin solution are added at a temperature of 37° C. in a constant temperature bath. Thus, a coagulation time is determined. The inhibitor concentration I50 (μmol), at which the coagulation time obtained in the absence of the inhibitor is extended twice, is determined.

[5] = Table 2, S-2444 substrate, pH 8.8, 37° C., read-out: Urokinase S-2444 (I50)
[6] = Table 2, S-2238 substrate, pH 8.1, 37° C., read-out: Trypsin S-2238 (I50)
[7] = Table 2, concentration at which fibrin dissolution time is extended twice, pH 7.4, 37° C.
[8] = Table 2, S-2302 substrate, pH 7.8, 37° C., read-out: Plasma Kallikrein S-2302 (I50)
[9] = Table 2, S-2238 substrate, pH 8.3, 37° C., read-out: Thrombin S-2238 (I50)

T1 sequence (P00747 581-810 limits assumed): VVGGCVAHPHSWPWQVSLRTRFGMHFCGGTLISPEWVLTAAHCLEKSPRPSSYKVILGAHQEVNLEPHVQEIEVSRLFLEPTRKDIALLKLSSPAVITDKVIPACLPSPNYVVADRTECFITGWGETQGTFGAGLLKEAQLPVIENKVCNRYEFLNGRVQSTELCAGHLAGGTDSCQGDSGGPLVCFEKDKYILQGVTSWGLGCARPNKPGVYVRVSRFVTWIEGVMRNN
T1 sequence (P00747 97-580 partner limits assumed): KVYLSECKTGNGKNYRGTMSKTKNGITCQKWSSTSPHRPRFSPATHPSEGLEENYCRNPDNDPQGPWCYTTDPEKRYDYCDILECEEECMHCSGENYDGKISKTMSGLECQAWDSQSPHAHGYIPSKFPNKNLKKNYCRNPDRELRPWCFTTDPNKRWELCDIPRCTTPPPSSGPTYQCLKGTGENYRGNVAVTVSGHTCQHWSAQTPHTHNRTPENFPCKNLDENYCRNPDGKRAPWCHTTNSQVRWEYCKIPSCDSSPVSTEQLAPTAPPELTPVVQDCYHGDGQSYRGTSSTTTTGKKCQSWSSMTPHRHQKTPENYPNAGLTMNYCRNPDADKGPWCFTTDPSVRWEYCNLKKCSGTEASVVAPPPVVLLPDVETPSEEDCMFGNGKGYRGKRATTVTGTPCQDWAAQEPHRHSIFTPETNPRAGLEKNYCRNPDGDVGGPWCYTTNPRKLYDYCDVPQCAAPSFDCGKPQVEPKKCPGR

| pIC50 (human plasmin [1]) | pIC50 (human urokinase; [5]) | pIC50 (bovine trypsin; [6]) | pIC50 (human plasmin [2]; [7]) | pIC50 (human plasma kallikrein; [8]) | pIC50 (bovine thrombin [3]; [9]) | pIC50 (bovine thrombin [4]) | pIC50 (bovine thrombin [3]) | SMILES | pIC50 (human plasmin [1]; Table 4, comparative compounds of Table 3, S-2251 substrate, pH 7.4, 37° C.) | pIC50 (human urokinase) | pIC50 (bovine trypsin) | pIC50 (human plasmin [2]; Table 4, comparative compounds of Table 3, fibrin dissolution time extended twice) | pIC50 (human plasma kallikrein) | pIC50 (bovine thrombin [3]; Table 4, comparative compounds of Table 3, S-2238 substrate, pH 8.3, read-out: Thrombin S-2238 (I50)) | pIC50 (bovine thrombin [4]; Table 4, comparative compounds of Table 3, coagulation time extended twice, read-out: Thrombin Fibrinogen (I50)) |
| --- | --- | --- | --- | --- | --- | --- | --- | --- | --- | --- | --- | --- | --- | --- | --- |
| 5.89 | 4.38 | 5.96 | 5.34 | 5.70 | 3.64 | < 3.30 | – | COc1ccc(C[C@H](NC(=O)[C@H]2CC[C@H](CN)CC2)C(=O)Nc2ccc(C(C)=O)cc2)cc1 [Compound No. 6, N-(trans-4-aminomethylcyclohexylcarbonyl)-4-methoxy-L-phenylalanine 4-acetylanilide] | – | – | – | – | – | – | – |
| 5.72 | 4.34 | 5.92 | 6.54 | 6.12 | 3.30 | < 4.00 | – | CC(=O)c1ccc(NC(=O)[C@H](Cc2ccc(OCc3cccc(F)c3)cc2)NC(=O)[C@H]2CC[C@H](CN)CC2)cc1 [compound 56] | – | – | – | – | – | – | – |
| 5.34 | 4.35 | 6.14 | 5.48 | 5.85 | 3.14 | < 3.30 | – | C=CCOc1ccc(C[C@H](NC(=O)[C@H]2CC[C@H](CN)CC2)C(=O)Nc2ccc(C(C)=O)cc2)cc1 [compound 57] | – | – | – | – | – | – | – |
| 5.25 | 4.19 | 5.96 | 6.06 | 5.62 | < 3.90 | < 4.00 | – | CCOC(=O)c1cccc(NC(=O)[C@H](Cc2ccc(OCc3ccccc3)cc2)NC(=O)[C@H]2CC[C@H](CN)CC2)c1 [compound 75] | – | – | – | – | – | – | – |
| 4.54 | < 3.30 | 4.66 | 4.74 | 3.46 | < 4.00 | < 3.60 | – | NCc1ccc(C(=O)N[C@@H](Cc2ccc(OCc3ccccc3)cc2)C(=O)NCc2ccncc2)cc1 [Compound No. 96, N-(4-aminomethylbenzoyl)-4-benzyloxy-L-phenylalanine 4-picolylamide dihydrochloride] | – | – | – | – | – | – | – |
| 3.66 | < 3.70 | 3.35 | 3.68 | < 3.70 | < 3.40 | < 3.40 | – | NCc1ccc(C(=O)N[C@@H](Cc2ccc(OCc3ccccc3)cc2)C(=O)N2CCN(C(=O)c3ccccc3)CC2)cc1 [compound 73] | – | – | – | – | – | – | – |
| 4.57 | 4.96 | 6.52 | 4.40 | 5.72 | < 4.00 | < 4.30 | – | NC[C@H]1CC[C@H](C(=O)N[C@@H](Cc2ccccc2)C(=O)Nc2ccc(C(=O)c3ccccc3)cc2)CC1 [Compound No. 1] | – | – | – | – | – | – | – |
| – | – | – | – | – | – | – | – | CC(=O)NC(Cc1ccc([N+](=O)[O-])cc1)C(=O)Nc1ccc([N+](=O)[O-])cc1 (stereo not drawn) [Table 3 Compound No. 4, reference compound] | < 4.00 | < 4.00 | < 3.82 | < 4.00 | < 4.00 | < 4.00 | < 4.00 |
| 5.28 | < 3.70 | 4.66 | 5.47 | < 4.00 | – | < 4.00 | < 3.70 | NC[C@H]1CC[C@H](C(=O)N[C@@H](Cc2ccc(OCc3ccccc3)cc2)C(=O)N2CCC(C(=O)c3ccccc3)CC2)CC1 [compound 48] | – | – | – | – | – | – | – |
| 4.82 | 4.47 | 6.30 | 5.15 | 5.08 | < 3.40 | < 3.40 | – | CC(=O)c1ccc(NC(=O)[C@H](Cc2ccc([N+](=O)[O-])cc2)NC(=O)[C@H]2CC[C@H](CN)CC2)cc1 [compound 130, N-(trans-4-aminomethylcyclohexylcarbonyl)-4-nitro-L-phenylalanine 4-acetylanilide hydrochloride] | – | – | – | – | – | – | – |
| 5.47 | < 3.82 | 5.52 | 6.11 | 5.43 | < 4.30 | < 4.30 | – | CC(=O)c1ccc(NC(=O)C(Cc2ccc(OCc3ccccc3)cc2)NC(=O)c2ccc(CN)cc2)cc1 (stereo not drawn) [compound 118] | – | – | – | – | – | – | – |
| 5.60 | 4.19 | 5.96 | 6.31 | 5.64 | – | < 3.60 | < 3.40 | NC[C@H]1CC[C@H](C(=O)N[C@@H](Cc2ccc(OCc3ccccc3)cc2)C(=O)NC2CC3CCC2C3)CC1 (stereo partly drawn) [compound 64] | – | – | – | – | – | – | – |
